# In US9249466B2, “Methods and compositions for treating cancer” (Agency for Science, Technology and Research, priority 2010, dated 2016):
# “Also recorded” adds a separate entry of the source.
# Legend:
# [1] = test system: SW480 and DLD1 cells; experiment: Apoptotic assay in SW480 and DLD1 cells; format: cell-based, human; conditions: BI2536 10 nM plus BEZ 235 100 nM, 48 hr
# [2] = test system: HEK-TERV cells; experiment: Apoptotic assay in HEK-TERV cells; format: cell-based, human; conditions: 10 nM for 24 h; PDK1-transformed vs control or PI3K (E545)-transformed cells
# [3] = test system: DLD1 and SW480 cells; experiment: Monolayer dense foci / colony formation of DLD1 and SW480 cells; format: cell-based, human; conditions: monolayer colony formation, 12 days
# Procedure: For DLD1 and HCT116 inducible cells foci formation assay, 1×10^4 cells were seeded on 6-well plate with or without treatment with Dox or rapamcycin. […]
# [4] = test system: DLD1 and SW480 cells; experiment: Cell viability of DLD1 and SW480 cells under drug combinations; format: cell-based, human; conditions: SW480 and DLD1 cells, BI 2536 10 nM plus BEZ 235 10 nM
# Procedure: (§1) Cell viability was measured using CellTiter-Glo™ Luminescent Cell Viability Assay (Promega).
# (§2) In brief, 1000 cells were seeded in 96-well plate and the cell number was measured following manufacturer's instruction. To detect the senescence in DLD1-tet on cells, cells were treated with Dox for 48 hr and SA-β-Gal staining was performed according to the protocol of Senescence Detection kit (BioVision). Cell cycle analysis was done by DNA content quantification.
# [5] = test system: HEK-PDK1 cells; experiment: Tumor sphere formation in HEK-PDK1 cells; format: cell-based, human; conditions: 5 nM BI2536 for 7 days
# [6] = test system: DLD1-PPP2R2B cells; experiment: Xenograft tumor growth of DLD1-PPP2R2B cells in nude mice; format: in vivo, BALB/c nude mice
# Procedure: The female athymice BALB/c nude mice (5-8 week-old) were housed in the Biological Resource Centre. Mice were implanted subcutaneously in both sides of flank with 3×10^6 DLD1-PPP2R2B or control DLD1 cells, respectively.
# When tumors reached ˜70 mm^3, the mice were divided two groups (6 mice per group) and the Doxycyclin was administrated by oral gavages at 100 mg/kg daily. Tumor progress was monitored with whole body weight and tumor size for every other day. For combination treatment with rapamycin and doxycycline, the same dose of doxycyclin was given at every other day and rapamycin was administered by intraperitoneal injection at 4 mg/kg at Day 3, 5, 7 and 11.
# Tumor diameters were measured every 3-4 days with caliper and tumor volumes were calculated from 7-9 mice per data time point. All animal work was performed in accordance with animal experiments guidelines of Singapore.
# [7] = test system: p70S6K and S6 phosphorylation; experiment: Immunoblot analysis of p70S6K and S6 phosphorylation; format: cell-based, human; conditions: DLD1 vector control and PPP2R2B expressing cells, 10 nM rapamycin
# [8] = bile of treated rats; cited from earlier work
# [9] = test system: experimental allergic encephalomyelitis; conditions: model for multiple sclerosis; cited from earlier work
# [10] = test system: HCT116 and DKO cells; experiment: Rapamycin-induced growth inhibition in HCT116 and DKO cells; format: cell-based, human; conditions: DKO cells compared to parental HCT116 cells
# Procedure: as §1, §2
# [11] = test system: DLD1-PPP2R2B cells; experiment: Cell cycle analysis by flow cytometry in DLD1-PPP2R2B cells; format: cell-based, human; conditions: rapamycin added to Dox-induced PPP2R2B expression, 48 h
# Procedure: as §2
# The cells were fixed with 70% ethanol and stained with propidium iodide (50 μg/ml) staining. The stained cells were analyzed by FACScalibur (BD Bioscience) and quantified by using CellQuest software (BD bioscience).
# [12] = test system: cytochrome P-450 3A; conditions: cited from earlier work
# [13] = test system: neurodegeneration; conditions: fly model of HD; cited from earlier work
# [14] = test system: huntingtin accumulation and cell death; conditions: cell models of HD; cited from earlier work
# [15] = test system: CRC cell lines; experiment: Cell viability (CellTiter-Glo): rapamycin-induced growth inhibition in CRC cell lines; format: cell-based; conditions: Homo sapiens, 120 h; 10 nM rapamycin, 5 days treatment, all examined CRC cell lines; read-out: rapamycin-induced growth inhibition compared to untreated cells
# Procedure: as §1, §2
# [16] = test system: adjuvant arthritis; conditions: model for rheumatoid arthritis; cited from earlier work
# [17] = test system: DLD1-PPP2R2B cells; experiment: Cell viability assay in DLD1-PPP2R2B cells; format: cell-based, human; conditions: 10 nM rapamycin, PPP2R2B re-expressed by Dox vs no Dox, 5 days
# Procedure: as §1, §2
# [18] = test system: p-Myc(T58/S62); experiment: Immunoblot analysis of Myc phosphorylation; format: cell-based, human
# [19] = test system: p-AKT (S473); experiment: Immunoblot analysis of AKT S473 phosphorylation; format: cell-based, human
# [20] = test system: PPP2R2B-expressing cancer cell lines; experiment: Rapamycin-induced growth inhibition in PPP2R2B-expressing cancer cell lines; format: cell-based, human; conditions: 10 nM rapamycin, 5 days; compared to CRC cell lines
# Procedure: as §1, §2
# [21] = animal models; cited from earlier work
# [22] = test system: Candida albicans; conditions: in vitro and in vivo; cited from earlier work
# [23] = test system: DLD1-PPP2R2B cells; experiment: Dense foci / colony formation assay in DLD1-PPP2R2B cells; format: cell-based, human; conditions: 10 nM rapamycin, PPP2R2B re-expressed by Dox vs no Dox, 14 days
# Procedure: For DLD1 and HCT116 inducible cells foci formation assay, 1×10^4 cells were seeded on 6-well plate with or without treatment with Dox or rapamcycin. Cells were grown for 2 weeks and the surviving colonies were stained with gentian violet after methanol fixation, and visible colonies (>50 cells) were counted.
# [24] = test system: IgE-like antibodies; conditions: in vivo; cited from earlier work
# [25] = DLD1 cells serum starved 48 h, then 10 nM rapamycin
smiles,measurement,setting,value
CC[C@@H]1C(=O)N(C)c2cnc(Nc3ccc(C(=O)NC4CCN(C)CC4)cc3OC)nc2N1C1CCCC1 [BI2536],apoptosis in combination with BEZ235,[1],strong synergistic
same,apoptosis,[2],selectively induced apoptosis in PDK1-transformed cells
same,long term colony formation in combination with BEZ235,[3],strong synergistic
same,growth inhibition in combination with BEZ235,[4],strong synergistic growth inhibition
same,tumor sphere formation,[5],blocks the tumor sphere formation; also recorded: abolished the PDK1-driven tumorspheres formation
"CO[C@H]1C[C@@H]2CC[C@@H](C)[C@@](O)(O2)C(=O)C(=O)N2CCCC[C@H]2C(=O)O[C@H]([C@H](C)C[C@@H]2CC[C@@H](O)[C@H](OC)C2)CC(=O)[C@H](C)/C=C(\C)[C@@H](O)[C@@H](OC)C(=O)[C@H](C)C[C@H](C)/C=C/C=C/C=C/1C [rapamycin, (3S,6R,7E,9R,10R,12R,14S,15E,17E,19E,21S,23S,26R,27R,34aS)-9,10,12,13,14,21,22,23,24,25,26,27,32,33,34,34a-hexadecahydro-9,27-dihydroxy-3-[(1R)-2-[(1S,3R,4R)-4-hydroxy-3-methoxycyclohexyl]-1-methylethyl]-10,21-dimethoxy-6,8,12,14,20,26-hexamethyl-23,27-epoxy-3H-pyrido[2,1-c][1,4]-oxaazacyclohentriacontine-1,5,11,28,29(4H,6H,31H)-pentone]","xenograft tumor growth, single treatment","[6]; rapamycin 4 mg/kg i.p. or Dox 100 mg/kg oral alone, every other day",moderately attenuated
same,"xenograft tumor growth, combination of rapamycin and Dox",[6]; rapamycin 4 mg/kg plus Dox 100 mg/kg (PPP2R2B re-expression),strong tumor growth inhibition
same,p70S6K and S6 phosphorylation,[7],effectively abolished
same,number of hydroxylated and demethylated metabolites detected,[8],> 16
same,efficacy,[9],effective
same,sensitivity to rapamycin treatment,[10],more sensitive
same,cell cycle G2 arrest,[11],markedly augmented
same,number of metabolites formed,[12],at least six metabolites
same,neurodegeneration,[13],protects against neurodegeneration
same,huntingtin accumulation and cell death,[14],attenuates huntingtin accumulation and cell death
same,inhibition at 0.01 µM,[15],< 10%
same,efficacy,[16],effective
same,rapamycin-induced growth inhibition (cell viability assay),[17],much more effective
same,Myc phosphorylation,"[18]; DKO (DNMTs-deficient HCT116) cells, 10 nM rapamycin",did not respond to rapamycin
same,rapamycin-induced Myc phosphorylation under serum starvation,[18]; [25],no significant effect
same,Myc phosphorylation and protein accumulation,"[18]; DLD1 cells, 10 nM rapamycin, 48 hr",strong induction of Myc phosphorylation and protein accumulation; also recorded: induces Myc phosphorylation
same,time at which the Myc response occurred,"[18]; DLD1 cells, 10 nM rapamycin, time course",4 h
same,Myc phosphorylation,"[18]; HCT116 cells, 10 nM rapamycin",strongly induced
same,Myc phosphorylation,"[18]; PPP2R2B-expressing cancer cell lines (HepG2, HepB3, 786-O, Caki2, OVCAR3, OVCAR5, SK-OV-3, U2OS)",none of these PPP2R2B-expressing cancer cell lines showed an induction of Myc phosphorylation
same,Myc phosphorylation,"[18]; all examined CRC cell lines, rapamycin 48 hr",marked induction of Myc phosphorylation
same,AKT S473 phosphorylation,"[19]; CRC cells (DLD1), 10 nM rapamycin",induction of AKT S473 phosphorylation
same,rapamycin-induced AKT S473 phosphorylation under serum starvation,[19]; [25],abolished
same,AKT S473 phosphorylation,"[19]; HCT116 and DKO cells, 10 nM rapamycin",similarly induced
same,AKT S473 phosphorylation,[19]; PPP2R2B-expressing cancer cell lines,consistent induction of AKT S473 phosphorylation
same,sensitivity to rapamycin,[20],much more sensitive
same,nephrotoxicity,[21],no nephrotoxicity has been detected
same,antifungal activity,[22],antifungal activity
same,rapamycin-induced growth inhibition (colony formation assay),[23],much more effective
same,formation of IgE-like antibodies,[24],effectively inhibited
